Laboratory results taken from the supplement of paper PMC9386025.

Experiments:
Assay in all cases: drug sensitivity score (DSS) (DSS (dimensionless)); higher = more sensitive (stronger drug response)
[1] = tested on: FIMM-PDC1 (patient-derived ovarian cancer cells); conditions: genetic perturbation: none (patient-derived cell culture)
In short: (§1)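 Cells, either patient-derived cultures or ovarian cancer cell lines given 100 ng/ml doxycycline for no less than three days to induce shRNA, went into 384-well plates at 1 000 – 1 500 per well over drugs pre-plated in five concentrations across a 10,000-fold range. The plates were held for three days at 37 °C with 5.0 % CO2. Cell viability was then taken from CellTiter-Glo luminescence on a PHERAstar FS. For each drug, a drug sensitivity score from its dose-response curve was obtained by a method described earlier.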

[2] = tested on: FIMM-PDC3 (patient-derived ovarian cancer cells); conditions: genetic perturbation: none (patient-derived cell culture)
In short: as §1

[3] = tested on: FIMM-PDC4 (patient-derived ovarian cancer cells); conditions: genetic perturbation: none (patient-derived cell culture)
In short: as §1

[4] = tested on: FIMM-PDC5 (patient-derived ovarian cancer cells); conditions: genetic perturbation: none (patient-derived cell culture)
In short: as §1

[5] = tested on: FIMM-PDC6 (patient-derived ovarian cancer cells); conditions: genetic perturbation: none (patient-derived cell culture)
In short: as §1

[6] = tested on: FIMM-PDC7 (patient-derived ovarian cancer cells); conditions: genetic perturbation: none (patient-derived cell culture)
In short: as §1

[7] = tested on: JHOS2
In short: as §1

[8] = tested on: Kuramochi
In short: as §1

[9] = tested on: OVSAHO
In short: as §1

[10] = genetic perturbation: DOX-induced PTK7 shRNA knockdown
[11] = genetic perturbation: DOX-induced control shRNA

## CC(C)(C)C[C@@H]1N[C@@H](C(=O)N[C@H]2CC[C@H](O)CC2)[C@H](c2cccc(Cl)c2F)[C@]12C(=O)Nc1cc(Cl)ccc12
[1]
  drug sensitivity score: < 0
[2]
  drug sensitivity score: 4.9
[3]
  drug sensitivity score: 8.1
[4]
  drug sensitivity score: 15.8
[5]
  drug sensitivity score: 10.5
[6]
  drug sensitivity score: 5
[7]; [10]
  drug sensitivity score: 4.8
[7]; [11]
  drug sensitivity score: 0.1
[8]; [10]
  drug sensitivity score: 1.9
[8]; [11]
  drug sensitivity score: 0.8
[9]; [10]
  drug sensitivity score: 2.7
[9]; [11]
  drug sensitivity score: 1.2

## CC(C)(C)c1cc(NC(=O)Nc2ccc(Oc3ccnc4[nH]c(=O)cnc34)cc2F)n(-c2ccccc2)n1
[1]
  drug sensitivity score: 3.9
[2]
  drug sensitivity score: 4.2
[3]
  drug sensitivity score: 0.7
[4]
  drug sensitivity score: 0.3
[5]
  drug sensitivity score: 0.4
[6]
  drug sensitivity score: 0.3
[7]; [10]
  drug sensitivity score: 1.8
[7]; [11]
  drug sensitivity score: 8.3
[8]; [10]
  drug sensitivity score: 2.15
[8]; [11]
  drug sensitivity score: 9.4
[9]; [10]
  drug sensitivity score: 3.9
[9]; [11]
  drug sensitivity score: 9.1

## CC(C)Oc1ccc(C(=O)N[C@H](CNC(=O)CN(C)C)Cc2ccc(-c3cn4cccc([C@H](C)O)c4n3)cc2)cc1Cl
[1]
  drug sensitivity score: 12.7
[2]
  drug sensitivity score: 11.9
[3]
  drug sensitivity score: 6
[4]
  drug sensitivity score: 14.9
[5]
  drug sensitivity score: 0.2
[6]
  drug sensitivity score: 4.2
[7]; [10]
  drug sensitivity score: 8.9
[7]; [11]
  drug sensitivity score: 6.4
[8]; [10]
  drug sensitivity score: 15.1
[8]; [11]
  drug sensitivity score: 2.5
[9]; [10]
  drug sensitivity score: 7.7
[9]; [11]
  drug sensitivity score: 9.5

## CCc1cncnc1N1CCN(Cc2nc3ccc(C(F)(F)F)cc3[nH]2)CC1
[1]
  drug sensitivity score: 1.9
[2]
  drug sensitivity score: 0.5
[3]
  drug sensitivity score: 3.2
[4]
  drug sensitivity score: 2.9
[5]
  drug sensitivity score: 8.9
[6]
  drug sensitivity score: 4.3
[7]; [10]
  drug sensitivity score: 0.1
[7]; [11]
  drug sensitivity score: 0.7
[8]; [10]
  drug sensitivity score: 2.3
[8]; [11]
  drug sensitivity score: 0.8
[9]; [10]
  drug sensitivity score: 1.2
[9]; [11]
  drug sensitivity score: 2

## CCn1c(-c2nonc2N)nc2c(C#CC(C)(C)O)ncc(OC[C@H]3CCCNC3)c21
[1]
  drug sensitivity score: 7.3
[2]
  drug sensitivity score: 1.5
[3]
  drug sensitivity score: 7.2
[4]
  drug sensitivity score: 8.3
[5]
  drug sensitivity score: 5.7
[6]
  drug sensitivity score: 11.5
[7]; [10]
  drug sensitivity score: < 0
[7]; [11]
  drug sensitivity score: 0.5
[8]; [10]
  drug sensitivity score: 0.9
[8]; [11]
  drug sensitivity score: < 0
[9]; [10]
  drug sensitivity score: < 0
[9]; [11]
  drug sensitivity score: 4.8

## CCn1cc(-c2ccnc3[nH]c(-c4cccc(CN(C)C)c4)cc23)c(-c2ccc(NC(=O)N(C)C)cc2)n1
[1]
  drug sensitivity score: 2.25
[2]
  drug sensitivity score: 2.8
[3]
  drug sensitivity score: 2.9
[4]
  drug sensitivity score: 4.1
[5]
  drug sensitivity score: < 0
[6]
  drug sensitivity score: 0.2
[7]; [10]
  drug sensitivity score: < 0
[7]; [11]
  drug sensitivity score: 0.4
[8]; [10]
  drug sensitivity score: < 0
[8]; [11]
  drug sensitivity score: < 0
[9]; [10]
  drug sensitivity score: 0.4
[9]; [11]
  drug sensitivity score: < 0

## CN(C)CC#Cc1ccc(OCCCc2sc(N3CCc4cccc(C(=O)Nc5nc6ccccc6s5)c4C3)nc2C(=O)O)c(F)c1
[1]
  drug sensitivity score: 18.7
[2]
  drug sensitivity score: 16.8
[3]
  drug sensitivity score: 14.1
[4]
  drug sensitivity score: 31.9
[5]
  drug sensitivity score: 30.1
[6]
  drug sensitivity score: 19.3
[7]; [10]
  drug sensitivity score: 6.3
[7]; [11]
  drug sensitivity score: 0.5
[8]; [10]
  drug sensitivity score: 4.55
[8]; [11]
  drug sensitivity score: 9.9
[9]; [10]
  drug sensitivity score: 23.3
[9]; [11]
  drug sensitivity score: 2.6

## CN1CCN(C2CCC(n3cc(-c4ccc(Oc5ccccc5)cc4)c4c(N)ncnc43)CC2)CC1 (configuration not stated)
[1]
  drug sensitivity score: 5.85
[2]
  drug sensitivity score: 14.6
[3]
  drug sensitivity score: 18.6
[4]
  drug sensitivity score: 18.4
[5]
  drug sensitivity score: 14.7
[6]
  drug sensitivity score: 7
[7]; [10]
  drug sensitivity score: 9.9
[7]; [11]
  drug sensitivity score: 11.5
[8]; [10]
  drug sensitivity score: 16.8
[8]; [11]
  drug sensitivity score: 12
[9]; [10]
  drug sensitivity score: 18.9
[9]; [11]
  drug sensitivity score: 10.8

## CNC(=O)c1ccccc1Nc1nc(Nc2ccc3c(c2OC)CCC[C@H](N2CCN(CCO)CC2)C3)ncc1Cl
[1]
  drug sensitivity score: 7.5
[2]
  drug sensitivity score: 6.9
[3]
  drug sensitivity score: 9.6
[4]
  drug sensitivity score: 10.2
[5]
  drug sensitivity score: 5.3
[6]
  drug sensitivity score: 5.5
[7]; [10]
  drug sensitivity score: 7.1
[7]; [11]
  drug sensitivity score: 5.6
[8]; [10]
  drug sensitivity score: 7.7
[8]; [11]
  drug sensitivity score: 6.3
[9]; [10]
  drug sensitivity score: 12.4
[9]; [11]
  drug sensitivity score: 7.5

## CNc1ncc2cc(-c3cc(NC(=O)NCCC(C)(C)C)c(F)cc3C)c(C)nc2n1
[1]
  drug sensitivity score: 1.85
[2]
  drug sensitivity score: 7.4
[3]
  drug sensitivity score: 11.9
[4]
  drug sensitivity score: 18.2
[5]
  drug sensitivity score: 14.3
[6]
  drug sensitivity score: 6.2
[7]; [10]
  drug sensitivity score: 7.6
[7]; [11]
  drug sensitivity score: 13.6
[8]; [10]
  drug sensitivity score: 11.6
[8]; [11]
  drug sensitivity score: 6.2
[9]; [10]
  drug sensitivity score: 12.2
[9]; [11]
  drug sensitivity score: 9.2

## CO[C@@H](C)Cn1c(=O)n(C)c2cnc3ccc(-c4cncc(C(C)(C)O)c4)cc3c21
[1]
  drug sensitivity score: 6.85
[2]
  drug sensitivity score: 6.9
[3]
  drug sensitivity score: 12
[4]
  drug sensitivity score: 16.8
[5]
  drug sensitivity score: 12.6
[6]
  drug sensitivity score: 11.6
[7]; [10]
  drug sensitivity score: 7.2
[7]; [11]
  drug sensitivity score: 8.5
[8]; [10]
  drug sensitivity score: 8.4
[8]; [11]
  drug sensitivity score: 8.4
[9]; [10]
  drug sensitivity score: 11.3
[9]; [11]
  drug sensitivity score: 8

## COc1ccc2[nH]cc(/C=C3\C(=O)Nc4ccc(NC(=O)CCN5CCCCC5)cc43)c2c1
[1]
  drug sensitivity score: 6.15
[2]
  drug sensitivity score: 11
[3]
  drug sensitivity score: 9.7
[4]
  drug sensitivity score: 14.3
[5]
  drug sensitivity score: 5.8
[6]
  drug sensitivity score: 6.7
[7]; [10]
  drug sensitivity score: 7.8
[7]; [11]
  drug sensitivity score: 8
[8]; [10]
  drug sensitivity score: 7.75
[8]; [11]
  drug sensitivity score: 5.2
[9]; [10]
  drug sensitivity score: 7.4
[9]; [11]
  drug sensitivity score: 7.5

## C[C@@H](Oc1cc(-n2cnc3ccc(CN4CCN(C)CC4)cc32)sc1C(N)=O)c1ccccc1C(F)(F)F
[1]
  drug sensitivity score: 9.8
[2]
  drug sensitivity score: 12
[3]
  drug sensitivity score: 12.1
[4]
  drug sensitivity score: 24.1
[5]
  drug sensitivity score: 1.6
[6]
  drug sensitivity score: 8.5
[7]; [10]
  drug sensitivity score: 25
[7]; [11]
  drug sensitivity score: 7.5
[8]; [10]
  drug sensitivity score: 12.6
[8]; [11]
  drug sensitivity score: 6.3
[9]; [10]
  drug sensitivity score: 16.7
[9]; [11]
  drug sensitivity score: 8.4

## C[C@@]1(C(=O)Nc2ccc(F)nc2)CCCN1c1nc(Nc2cc(C3CC3)n[nH]2)c2cccn2n1
[1]
  drug sensitivity score: 13.8
[2]
  drug sensitivity score: 10.8
[3]
  drug sensitivity score: 11.5
[4]
  drug sensitivity score: 14.1
[5]
  drug sensitivity score: 4.1
[6]
  drug sensitivity score: 16.6
[7]; [10]
  drug sensitivity score: 6
[7]; [11]
  drug sensitivity score: 4.4
[8]; [10]
  drug sensitivity score: 5.25
[8]; [11]
  drug sensitivity score: 5
[9]; [10]
  drug sensitivity score: 7.2
[9]; [11]
  drug sensitivity score: 8.9

## Cc1c(-c2ccc(N3CCc4cccc(C(=O)Nc5nc6ccccc6s5)c4C3)nc2C(=O)O)cnn1CC12CC3CC(CC(C3)C1)C2
[1]
  drug sensitivity score: 7.4
[2]
  drug sensitivity score: 9.6
[3]
  drug sensitivity score: 1.2
[4]
  drug sensitivity score: 13.9
[5]
  drug sensitivity score: 24.8
[6]
  drug sensitivity score: 7.6
[7]; [10]
  drug sensitivity score: 2.4
[7]; [11]
  drug sensitivity score: < 0
[8]; [10]
  drug sensitivity score: 1.25
[8]; [11]
  drug sensitivity score: 3.3
[9]; [10]
  drug sensitivity score: 19.8
[9]; [11]
  drug sensitivity score: < 0

## Cc1nc(Nc2n[nH]c3c2CN(C(=O)N[C@H](CN(C)C)c2ccccc2)C3(C)C)c2sccc2n1
[1]
  drug sensitivity score: 9.6
[2]
  drug sensitivity score: 14.3
[3]
  drug sensitivity score: 16.6
[4]
  drug sensitivity score: 20.8
[5]
  drug sensitivity score: 14.8
[6]
  drug sensitivity score: 11.8
[7]; [10]
  drug sensitivity score: 16.6
[7]; [11]
  drug sensitivity score: 13.6
[8]; [10]
  drug sensitivity score: 12.3
[8]; [11]
  drug sensitivity score: 8.6
[9]; [10]
  drug sensitivity score: 11.1
[9]; [11]
  drug sensitivity score: 15.3
